IC50 data for 20 molecules are collected here from patent US9604998B2, “Inhibitors of the renal outer medullary potassium channel” (MERCK SHARP & DOHME CORP., priority 2013, dated 2017).

Where a name gives a salt, the structure may show the parent alone.

The target of one assay is hROMK (hKir1.1) (Homo sapiens (Human), UniProt P48048). The experiment in a line: Thallium Flux Assay (ROMK channel functional thallium flux, FLIPR-Tetra). The format is cell-based. To be noted: HEK293 cells stably expressing hROMK (hKir1.1); read-out: Thallium Flux IC50.
For the next assay, the target named is Kir1.1 (ROMK1) (Homo sapiens (Human), UniProt P48048). The experiment in a line: Electrophysiology Assay (whole cell voltage clamp, IonWorks Quattro). The note with it: Chinese hamster ovary cells stably expressing Kir1.1; block during voltage step to 0 mV; read-out: Electrophysiology IC50. The format is cell-based. The method, boiled down:
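CHO cells stably expressing the channel, induced overnight with 1 mM sodium butyrate, were recorded in amphotericin-perforated patch mode. The test pulse was a 100 ms step to 0 mV from −70 mV, then a −70 to +70 mV ramp, applied before and after a 6 min compound incubation. Current amplitudes were compared.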
For orientation: The patch-clamp technique gives a direct electrical read-out from membranes.

Kir1.1 (ROMK1), sequence (P48048 whole entry, species assumed): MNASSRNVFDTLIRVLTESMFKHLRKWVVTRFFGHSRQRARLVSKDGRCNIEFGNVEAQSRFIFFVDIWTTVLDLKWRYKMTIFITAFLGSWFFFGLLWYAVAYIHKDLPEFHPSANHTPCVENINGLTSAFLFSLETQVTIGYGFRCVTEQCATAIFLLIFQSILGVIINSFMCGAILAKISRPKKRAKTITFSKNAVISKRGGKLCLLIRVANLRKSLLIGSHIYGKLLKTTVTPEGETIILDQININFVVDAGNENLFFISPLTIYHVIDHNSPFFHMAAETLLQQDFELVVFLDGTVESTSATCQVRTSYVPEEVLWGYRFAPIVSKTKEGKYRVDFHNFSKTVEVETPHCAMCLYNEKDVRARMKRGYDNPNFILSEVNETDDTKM
hROMK (hKir1.1), sequence (P48048 whole entry): as the sequence (P48048 whole entry, species assumed) above

In the case of `Cc1c([C@@H]2CN3CCN(C[C@H](O)c4ccc5c(c4C)COC5=O)C[C@H]3CO2)ccc2c1COC2=O` [Example 3, 5-((R)-1-hydroxy-2-((3R,9aS)-3-(4-methyl-1-oxo-1,3-dihydroisobenzofuran-5-yl)hexahydropyrazino[2,1-c][1,4]oxazin-8(1H)-yl)ethyl)-4-methylisobenzofuran-1(3H)-one], the IC50 (in general, the concentration that inhibits the measured activity by half) is 120 nM at hROMK (hKir1.1) and 50 nM on Kir1.1 (ROMK1).

As to `Cc1c([C@@H]2CN3CCN(C[C@H](O)c4ccc5c(c4)COC5=O)C[C@@H]3CN2)ccc(F)c1C#N` [Example 107], the IC50 is 160 nM on hROMK (hKir1.1) and 200 nM at Kir1.1 (ROMK1).

In the case of `Cc1c([C@H]2CN3CCN(CCc4ccc5c(c4)COC5=O)C[C@H]3CN2)ccc(F)c1C#N` [Example 104], the IC50 amounted to 110 nM on hROMK (hKir1.1) and 400 nM at Kir1.1 (ROMK1).

For the molecule `COc1cc(C(O)CN2CCN3C[C@@H](c4ccc5c(c4C)COC5=O)OC[C@@H]3C2)cc(F)c1C#N` (stereo partly drawn) [Example 48, (3R,9aS)-8-[2-(4-cyano-3-fluoro-5-methoxyphenyl)-2-hydroxyethyl]-3-(4-methyl-1-oxo-1,3-dihydro-2-benzofuran-5-yl)octahydropyrazino[2,1-c][1,4]oxazin-5-ium chloride], the IC50 amounted to 220 nM on hROMK (hKir1.1) and 210 nM at Kir1.1 (ROMK1).

For `Cc1c([C@@H]2CN3CCN(CC(O)c4ccc5c(c4)C[C@H](C)OC5=O)C[C@H]3CO2)ccc2c1COC2=O` (single isomer, unassigned) [Example 44], the IC50 came out at 270 nM on hROMK (hKir1.1) and 130 nM on Kir1.1 (ROMK1).

As to `Cc1c(CCN2CCN3C[C@@H](c4ccc5c(c4)COC5=O)OC[C@@H]3C2)ccc2c1COC2=O` [Example 69], the figures for the IC50 at hROMK (hKir1.1) and at Kir1.1 (ROMK1) were 60 nM and 20 nM, respectively.

Consider `Cc1c(CCN2CCN3C[C@H](c4ccc5c(c4Cl)COC5=O)OC[C@@H]3C2)ccc2c1COC2=O` [Example 89], for which the IC50 at hROMK (hKir1.1) was 200 nM; at Kir1.1 (ROMK1), 100 nM.

On to `Cc1c(CCN2CCN3C[C@@H](c4ccc5c(c4C)COC5=O)OC[C@@H]3C2)ccc2c1COC2=O` [Example 57, 4-Methyl-5-((3R,9aS)-8-(2-(4-methyl-1-oxo-1,3-dihydroisobenzofuran-5-yl)ethyl)octahydropyrazino[2,1-c][1,4]oxazin-3-yl)isobenzofuran-1(3H)-one], for which the IC50 at hROMK (hKir1.1) is 30 nM; at Kir1.1 (ROMK1) it was 90 nM.

Turning to `Cc1cc2c(cc1C(O)CN1CCN3C[C@@H](c4ccc5c(c4C)COC5=O)OC[C@@H]3C1)COC2=O` (single isomer, unassigned) [Example 42], the values for the IC50 at hROMK (hKir1.1) and on Kir1.1 (ROMK1) were 220 nM and 80 nM, respectively.

On to `Cc1c([C@@H]2CN3CCN(CCc4ccc5c(c4)C[C@H](C)OC5=O)C[C@H]3CO2)ccc2c1COC2=O` [Example 86], for which the IC50 on hROMK (hKir1.1) and at Kir1.1 (ROMK1) was 80 nM throughout.

Regarding `Cc1c(C(C)CN2CCN3C[C@@H](c4ccc5c(c4C)COC5=O)OC[C@@H]3C2)ccc2c1COC2=O` (stereo partly shown) [Example 90], the IC50 at hROMK (hKir1.1) is 110 nM; on Kir1.1 (ROMK1) it was 230 nM.

For the molecule `Cc1c([C@@H]2CN3CCN(CC(O)c4ccc5c(c4C4CC4)COC5=O)C[C@H]3CO2)ccc2c1COC2=O` (single isomer, unassigned) [Example 51], the values for the IC50 at hROMK (hKir1.1) and on Kir1.1 (ROMK1) were 400 nM and 230 nM, respectively.

Take `Cc1c([C@H]2CN3CCN(CC(C)c4ccc5c(c4)COC5=O)C[C@H]3CO2)ccc2c1COC2=O` (stereo partly shown) [Example 66]: the IC50 stood at 170 nM on hROMK (hKir1.1) and 140 nM on Kir1.1 (ROMK1).

Take `COc1cc(C(O)CN2CCN3C[C@@H](c4ccc5c(c4C)COC5=O)OC[C@@H]3C2)ccc1C#N` (single isomer, unassigned) [Example 47]: the IC50 at hROMK (hKir1.1) was found to be 250 nM; at Kir1.1 (ROMK1), 190 nM.

Take `Cc1c([C@H]2CN3CCN(CCc4ccc(-n5cnnn5)nc4)C[C@H]3CO2)ccc(F)c1C#N` [Example 93]: the IC50 at hROMK (hKir1.1) and on Kir1.1 (ROMK1) was 80 nM each time.

Turning to `Cc1c([C@@H]2CN3CCN(CCc4ccc5c(c4)COC5=O)C[C@H]3CO2)ccc2c1COC2=O` [Example 64], the IC50 at hROMK (hKir1.1) and on Kir1.1 (ROMK1) was 40 nM throughout.

`Cc1c([C@@H]2CN3CCN(CCc4ccc5c(c4Br)COC5=O)C[C@H]3CO2)ccc2c1COC2=O` [Example 91]: the IC50 at hROMK (hKir1.1) stood at 90 nM; at Kir1.1 (ROMK1), 210 nM.

`Cc1c(C(O)CN2CCN3C[C@@H](c4ccc5c(c4C)COC5=O)OC[C@@H]3C2)ccc(F)c1C#N` (stereo partly drawn) [Example 13, (3R,9aS)-8-[2-(3-cyano-4-fluoro-2-methylphenyl)-2-hydroxyethyl]-3-(4-methyl-1-oxo-1,3-dihydro-2-benzofuran-5-yl)octahydropyrazino[2,1-c][1,4]oxazin-5-ium trifluoroacetate]: the IC50 on hROMK (hKir1.1) came to 270 nM; at Kir1.1 (ROMK1) it was 220 nM.

With `Cc1c([C@H]2CN3CCN(C[C@H](O)c4ccc5c(c4)COC5=O)C[C@@H]3CN2)ccc(F)c1C#N` [Example 108], the IC50 at hROMK (hKir1.1) and on Kir1.1 (ROMK1) was 100 nM each time.

As to `Cc1c([C@H](O)CN2CCN3C[C@@H](c4ccc5c(c4)COC5=O)OC[C@@H]3C2)ccc2c1COC2=O` [Example 12, (3R,9aS)-8-[(2S)-2-hydroxy-2-(4-methyl-1-oxo-1,3-dihydro-2-benzofuran-5-yl)ethyl]-3-(1-oxo-1,3-dihydro-2-benzofuran-5-yl)octahydropyrazino[2,1-c][1,4]oxazin-5-ium chloride], the results for the IC50 at hROMK (hKir1.1) and on Kir1.1 (ROMK1) were 190 nM and 30 nM, respectively.
